Test results from US8586597B2, “6-fluoro-3-phenyl-2-[1-(9H-purin-6-ylamino)ethyl]-3H-quinazolin-4-one as an inhibitor of human phosphatidylinositol 3-kinase delta” (ICOS Corporation, priority 2004, dated 2013).

How the values were obtained:
human neutrophils (PMN) = assay: Neutrophil (PMN) elastase release (fMLP-induced elastase exocytosis); assay type: cell-based
Procedure: Aliquots (8 mL) of heparinized blood from healthy volunteers are layered on 3 mL cushions of 7.3% FICOLL® (Sigma, St. Louis, Mo.) and 15.4% HYPAQUE® (Sigma) and centrifuged at 900 rpm for 30 min at room temperature in a table top centrifuge (Beckman). The neutrophil-rich band just above the FICOLL®-HYPAQUE® cushion is collected and washed with Hanks' balanced salt solution (HESS) containing 0.1% gelatin. Residual erythrocytes are removed by, hypotonic lysis with 0.2% NaCl. The neutrophil preparation is washed twice with HESS containing 0.1% gelatin and used immediately.
In addition to superoxide generation, activated neutrophils also respond by releasing several proteases that are responsible for the destruction of tissues and cartilage during inflammation. As an indication of protease release, the effect of present compound on elastase exocytosis is measured. Elastase exocytosis is quantitated by modification of the procedure described by Ossanna et al. (J. Clin. Invest., 77:1939-51 (1986)), as follows. Purified human neutrophils (0.2×10^6) (treated with either DMSO or a serial dilution of a present compound in DMSO) are stimulated with fMLP in PBS containing 0.01 mg/mL cytochalasin B, 1.0 μM sodium azide (NaN3), 5 μg/mL L-methionine and 1 μM fMLP for 90 min at 37° C. in a 96-well plate. At the end of the incubation period, the plate is centrifuged for 5 min at 1000 rpm, and 90 μL of the supernatant is transferred to 10 μL of 10 mM solution of an elastase substrate peptide, MeO-suc-Ala-Ala-Pro-Val-pNA, wherein MeO-suc=methoxy-succinyl; pNA=p-nitroanilide (Calbiochem, San Diego, Calif.). Absorbance at 410 nm is monitored for 2 hr in a 96-well plate reader. To measure the relative amounts of elastase excytosed, all absorbance values are normalized to the values without any inhibitor.
Using the methods described in Example 2, compounds of the invention were tested for inhibitory activity and potency in an assay of neutrophil (PMN) elastase release. In Table 1, the values shown are effective concentrations of the compound (EC50; μM).

PI3Kγ = PI3Kγ (Homo sapiens (Human), UniProt P48736); assay: Biochemical assay of PI3K selectivity (PI3Kγ); conditions: ratio of IC50 for PI3Kγ relative to PI3Kδ
Chain of PI3Kγ (P48736 whole entry): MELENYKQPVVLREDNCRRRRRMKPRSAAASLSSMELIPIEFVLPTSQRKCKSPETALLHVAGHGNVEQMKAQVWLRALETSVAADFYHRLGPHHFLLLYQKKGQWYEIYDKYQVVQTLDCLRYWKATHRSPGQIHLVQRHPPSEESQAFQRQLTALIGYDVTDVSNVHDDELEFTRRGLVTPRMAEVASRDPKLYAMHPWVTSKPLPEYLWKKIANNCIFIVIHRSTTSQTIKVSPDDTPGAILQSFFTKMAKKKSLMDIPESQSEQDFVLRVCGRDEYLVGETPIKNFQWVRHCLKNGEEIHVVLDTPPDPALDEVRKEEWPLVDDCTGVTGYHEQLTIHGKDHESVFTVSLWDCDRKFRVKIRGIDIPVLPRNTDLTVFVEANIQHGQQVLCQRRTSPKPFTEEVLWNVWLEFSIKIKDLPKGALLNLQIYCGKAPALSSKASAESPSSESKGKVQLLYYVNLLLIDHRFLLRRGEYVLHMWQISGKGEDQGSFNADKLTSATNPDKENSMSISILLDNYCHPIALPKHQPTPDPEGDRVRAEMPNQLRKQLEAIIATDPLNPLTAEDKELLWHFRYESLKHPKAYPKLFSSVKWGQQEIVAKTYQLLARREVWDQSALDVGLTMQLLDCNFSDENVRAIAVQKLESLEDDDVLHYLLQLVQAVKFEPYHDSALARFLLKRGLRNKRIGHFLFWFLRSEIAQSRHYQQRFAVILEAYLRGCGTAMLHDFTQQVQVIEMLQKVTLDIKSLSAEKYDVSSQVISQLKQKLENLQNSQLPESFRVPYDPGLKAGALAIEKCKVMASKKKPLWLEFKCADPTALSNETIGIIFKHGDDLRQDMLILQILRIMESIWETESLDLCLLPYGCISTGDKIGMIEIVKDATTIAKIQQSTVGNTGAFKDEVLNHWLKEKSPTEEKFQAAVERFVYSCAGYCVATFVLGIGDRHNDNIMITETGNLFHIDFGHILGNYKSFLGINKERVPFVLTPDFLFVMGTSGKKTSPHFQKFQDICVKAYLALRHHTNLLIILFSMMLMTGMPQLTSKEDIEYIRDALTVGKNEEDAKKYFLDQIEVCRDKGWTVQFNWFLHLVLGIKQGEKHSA
Excerpt: p110γ: The p110γ cDNA (see Stoyanov et al., Science, 269:690-93 (1995)) was amplified from a human Marathon Ready spleen cDNA library (Clontech) according to the manufacturer's protocol using the following primers: […]
Recombinant baculoviruses containing the above clones were generated using manufacturer's recommended protocol (Life Technologies). Baculoviruses expressing His-tagged p110α, p110β, or p110δ catalytic subunit and p85 subunit were coinfected into Sf21 insect cells. To enrich the heterodimeric enzyme complex, an excess amount of baculovirus expressing p85 subunit was infected, and the His-tagged p110 catalytic subunit complexed with p85 was purified on nickel affinity column. […] In an alternate approach, p101 can be cloned into baculovirus, to permit coexpression with its preferred binding partner p110γ.
(§1) Biochemical Assay using 20 μM ATP
(§2) Using the method described in Example 2, compounds of the invention were tested for inhibitory activity and potency against PI3Kδ, and for selectivity for PI3Kδ versus other Class I PI3K isozymes. In Table 1, IC50 values (μM) are given for PI3Kδ (“Delta”), and may be calculated for the other isoforms using the ratios of IC50 values discussed below. To illustrate selectivity of the compounds, the ratios of the IC50 values of the compounds for PI3Kα, PI3Kβ, and PI3Kγ relative to PI3Kδ are given, respectively, as “Alpha/Delta Ratio,” “Beta/Delta Ratio,” and “Gamma/Delta Ratio.”
(§3) The initial selectivity assays were performed identically to the selectivity assay protocol in Example 2, except using 100 μL Ecoscint for radiolabel detection.
(§4) Subsequent selectivity assays were done similarly using the same 3× substrate stocks except they contained 0.05 mCi/mL γ[^32P]ATP and 3 mM PIP2. Subsequent selectivity assays also used the same 3× enzyme stocks, except they now contained 3 nM of any given PI3K isoform.
(§5) For all selectivity assays, the test compounds were weighed out and dissolved into 10-50 mM stocks in 100% DMSO (depending on their respective solubilities) and stored at −20° C. Compounds were thawed (to room temperature or 37° C.), diluted to 300 μM in water from which a 3-fold dilution series into water was done. From these dilutions, 20 μL was added into the assay wells alongside water blanks used for the enzyme (positive) control and the no enzyme (background) control. The remainder of the assay was performed essentially according to the selectivity assay protocol in Example 2.

PI3Kβ = PI3Kβ (Homo sapiens (Human), UniProt P42338); assay: Biochemical assay of PI3K selectivity (PI3Kβ); conditions: ratio of IC50 for PI3Kβ relative to PI3Kδ
Chain of PI3Kβ (P42338 2-1070): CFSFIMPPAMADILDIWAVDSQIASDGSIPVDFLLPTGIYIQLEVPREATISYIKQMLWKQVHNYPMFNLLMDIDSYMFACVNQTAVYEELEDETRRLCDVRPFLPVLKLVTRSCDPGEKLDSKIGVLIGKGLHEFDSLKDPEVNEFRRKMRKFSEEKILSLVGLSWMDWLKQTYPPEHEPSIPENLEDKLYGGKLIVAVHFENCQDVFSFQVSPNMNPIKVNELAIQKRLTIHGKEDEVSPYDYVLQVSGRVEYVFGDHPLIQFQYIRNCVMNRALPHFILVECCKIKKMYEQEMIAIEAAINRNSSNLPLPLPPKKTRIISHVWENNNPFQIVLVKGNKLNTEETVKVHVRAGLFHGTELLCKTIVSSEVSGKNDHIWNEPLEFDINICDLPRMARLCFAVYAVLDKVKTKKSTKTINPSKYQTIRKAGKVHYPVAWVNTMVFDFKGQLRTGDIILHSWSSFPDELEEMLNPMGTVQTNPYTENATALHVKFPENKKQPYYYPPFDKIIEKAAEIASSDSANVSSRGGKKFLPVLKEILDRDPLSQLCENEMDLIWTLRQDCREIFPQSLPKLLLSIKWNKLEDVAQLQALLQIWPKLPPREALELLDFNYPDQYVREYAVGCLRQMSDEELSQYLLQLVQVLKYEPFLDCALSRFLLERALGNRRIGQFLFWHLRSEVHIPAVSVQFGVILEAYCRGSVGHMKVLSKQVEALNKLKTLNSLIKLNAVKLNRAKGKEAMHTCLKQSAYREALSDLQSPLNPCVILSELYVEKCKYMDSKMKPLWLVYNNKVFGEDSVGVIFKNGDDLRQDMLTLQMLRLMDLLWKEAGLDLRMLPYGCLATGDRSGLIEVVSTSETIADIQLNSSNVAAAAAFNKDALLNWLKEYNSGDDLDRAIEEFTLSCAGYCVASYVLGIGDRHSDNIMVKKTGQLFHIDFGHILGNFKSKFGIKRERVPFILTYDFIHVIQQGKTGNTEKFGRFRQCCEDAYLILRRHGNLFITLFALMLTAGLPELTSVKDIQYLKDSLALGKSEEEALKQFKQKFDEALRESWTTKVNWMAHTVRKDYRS
Chain of PI3Kβ (P27986 whole entry partner): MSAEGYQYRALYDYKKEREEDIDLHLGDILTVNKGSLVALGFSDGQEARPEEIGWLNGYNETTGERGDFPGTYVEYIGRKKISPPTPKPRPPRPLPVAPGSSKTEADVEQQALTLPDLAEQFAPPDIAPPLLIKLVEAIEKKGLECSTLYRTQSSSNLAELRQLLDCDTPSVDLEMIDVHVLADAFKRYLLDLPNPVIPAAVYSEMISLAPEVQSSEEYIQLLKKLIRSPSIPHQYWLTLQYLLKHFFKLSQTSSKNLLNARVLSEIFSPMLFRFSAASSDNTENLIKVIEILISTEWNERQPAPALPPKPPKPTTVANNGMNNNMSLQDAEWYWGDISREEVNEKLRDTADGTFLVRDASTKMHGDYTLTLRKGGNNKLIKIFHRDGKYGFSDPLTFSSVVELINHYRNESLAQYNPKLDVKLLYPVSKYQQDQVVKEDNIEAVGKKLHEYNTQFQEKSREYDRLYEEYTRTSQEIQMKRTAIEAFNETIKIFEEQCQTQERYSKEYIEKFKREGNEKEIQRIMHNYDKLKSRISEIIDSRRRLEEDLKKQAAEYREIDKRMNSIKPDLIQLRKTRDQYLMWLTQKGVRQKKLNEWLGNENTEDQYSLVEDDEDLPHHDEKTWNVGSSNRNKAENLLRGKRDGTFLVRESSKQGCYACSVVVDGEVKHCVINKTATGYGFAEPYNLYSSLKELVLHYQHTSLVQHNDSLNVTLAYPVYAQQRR
Excerpt: (§6) Recombinant PI3K heterodimeric complexes consisting of a p110 catalytic subunit and a p85 regulatory subunit were overexpressed using the BAC-TO-BAC® HT baculovirus expression system (GIBCO/BRL), and then purified for use in biochemical assays. The four Class I PI 3-kinases were cloned into baculovirus vectors as follows:
p110β: A p110β (see Hu et al., Mol. Cell. Biol., 13:7677-88 (1993)) clone was amplified from the human MARATHON® Ready spleen cDNA library (Clontech, Palo Alto Calif.) according to the manufacturer's protocol using the following primers: […]
as §1, §2, §3, §4, §5

PI3Kδ = PI3Kδ (Homo sapiens (Human), UniProt O00329); assay: Biochemical assay of PI3K potency using 20 μM ATP (PI3Kδ); conditions: read-out: Delta IC50
Chain of PI3Kδ (O00329 whole entry S253N): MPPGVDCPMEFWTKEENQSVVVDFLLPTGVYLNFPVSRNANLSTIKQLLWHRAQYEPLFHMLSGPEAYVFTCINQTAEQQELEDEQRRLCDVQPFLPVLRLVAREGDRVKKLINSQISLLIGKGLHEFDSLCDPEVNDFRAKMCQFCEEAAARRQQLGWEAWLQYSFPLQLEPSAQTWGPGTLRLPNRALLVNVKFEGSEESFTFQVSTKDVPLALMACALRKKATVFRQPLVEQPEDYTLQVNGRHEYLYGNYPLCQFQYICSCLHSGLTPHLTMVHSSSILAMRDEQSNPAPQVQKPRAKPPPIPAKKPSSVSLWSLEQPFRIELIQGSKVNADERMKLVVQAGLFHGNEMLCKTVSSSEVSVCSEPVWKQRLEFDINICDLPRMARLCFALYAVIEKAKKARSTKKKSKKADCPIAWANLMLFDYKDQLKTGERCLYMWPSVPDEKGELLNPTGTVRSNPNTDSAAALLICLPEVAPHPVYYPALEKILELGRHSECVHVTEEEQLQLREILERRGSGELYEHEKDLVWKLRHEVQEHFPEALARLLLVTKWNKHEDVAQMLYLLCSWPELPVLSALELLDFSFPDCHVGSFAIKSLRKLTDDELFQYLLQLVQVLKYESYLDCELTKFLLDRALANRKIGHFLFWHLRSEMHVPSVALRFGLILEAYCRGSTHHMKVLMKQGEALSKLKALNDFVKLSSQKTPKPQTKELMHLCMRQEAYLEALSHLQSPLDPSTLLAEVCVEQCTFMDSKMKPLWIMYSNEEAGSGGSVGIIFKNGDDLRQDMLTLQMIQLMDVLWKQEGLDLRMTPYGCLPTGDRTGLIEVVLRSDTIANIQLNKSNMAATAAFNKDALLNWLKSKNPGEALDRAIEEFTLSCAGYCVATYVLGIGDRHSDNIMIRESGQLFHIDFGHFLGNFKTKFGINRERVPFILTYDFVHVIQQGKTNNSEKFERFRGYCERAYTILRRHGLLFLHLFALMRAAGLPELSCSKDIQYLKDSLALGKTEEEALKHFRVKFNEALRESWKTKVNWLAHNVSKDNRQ
Chain of PI3Kδ (P27986 whole entry partner): as the sequence (P27986 whole entry partner) above
Excerpt: as §6
p110δ: A FLAG®-tagged version of human p110δ (SEQ ID NOS: 1 and 2) (see Chantry et al., J. Biol. Chem., 272:19236-41 (1997)) was subcloned using standard recombinant DNA techniques into the BamH1-Xba1 site of the insect cell expression vector pFastbac HTb (Life Technologies, Gaithersburg, Md.), such that the clone was in frame with the His tag of the vector. The FLAG® system is described in U.S. Pat. Nos. 4,703,004; 4,782,137; 4,851,341; and 5,011,912, and reagents are available from Eastman Kodak Co.
as §1
Using the method described in Example 2, compounds of the invention were tested for inhibitory activity and potency against PI3Kδ, and for selectivity for PI3Kδ versus other Class I PI3K isozymes.
as §3, §4, §5

PI3Kα = PI3Kα (Homo sapiens (Human), UniProt P42336); assay: Biochemical assay of PI3K selectivity (PI3Kα); conditions: ratio of IC50 for PI3Kα relative to PI3Kδ
Chain of PI3Kα (P42336 whole entry): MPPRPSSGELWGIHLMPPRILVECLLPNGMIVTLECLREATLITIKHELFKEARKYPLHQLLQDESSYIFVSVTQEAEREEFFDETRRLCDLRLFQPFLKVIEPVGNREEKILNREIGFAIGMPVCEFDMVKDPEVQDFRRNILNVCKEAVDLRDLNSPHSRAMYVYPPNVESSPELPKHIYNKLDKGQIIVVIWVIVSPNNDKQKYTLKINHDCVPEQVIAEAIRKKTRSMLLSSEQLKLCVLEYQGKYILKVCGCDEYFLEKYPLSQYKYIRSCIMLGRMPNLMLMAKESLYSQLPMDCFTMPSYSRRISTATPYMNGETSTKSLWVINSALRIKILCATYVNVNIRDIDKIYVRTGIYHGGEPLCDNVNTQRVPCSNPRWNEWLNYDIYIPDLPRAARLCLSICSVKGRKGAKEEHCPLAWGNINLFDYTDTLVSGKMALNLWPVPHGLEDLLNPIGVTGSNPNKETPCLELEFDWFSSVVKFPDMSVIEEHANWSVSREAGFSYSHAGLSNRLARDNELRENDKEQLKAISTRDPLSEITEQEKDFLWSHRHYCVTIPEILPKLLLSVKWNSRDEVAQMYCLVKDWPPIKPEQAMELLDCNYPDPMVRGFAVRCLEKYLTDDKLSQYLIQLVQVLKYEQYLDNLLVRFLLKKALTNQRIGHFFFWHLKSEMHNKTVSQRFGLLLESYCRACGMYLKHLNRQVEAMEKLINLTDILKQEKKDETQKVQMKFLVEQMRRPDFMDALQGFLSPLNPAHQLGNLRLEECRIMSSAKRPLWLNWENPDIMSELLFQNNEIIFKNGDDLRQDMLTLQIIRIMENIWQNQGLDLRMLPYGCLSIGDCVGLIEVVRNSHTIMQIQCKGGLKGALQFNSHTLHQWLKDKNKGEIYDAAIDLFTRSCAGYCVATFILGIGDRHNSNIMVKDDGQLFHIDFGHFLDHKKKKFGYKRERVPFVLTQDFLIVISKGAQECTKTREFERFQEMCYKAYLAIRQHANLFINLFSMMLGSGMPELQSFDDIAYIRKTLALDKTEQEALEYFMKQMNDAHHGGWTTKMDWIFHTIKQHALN
Chain of PI3Kα (P27986 whole entry partner): as the sequence (P27986 whole entry partner) above
Excerpt: as §6
p110α: Similar to the method used for p110δ, described above, a FLAG®-tagged version of p110α (see Volinia et al., Genomics, 24(3):427-77 (1994)) was subcloned in BamH1-HindIII sites of pFastbac HTb (Life Technologies) such that the clone was in frame with the His tag of the vector.
as §1, §2, §3, §4, §5

Human B Lymphocyte = assay: Human B lymphocyte assay; assay type: cell-based
Procedure: Heparinized blood (200 mL) from healthy volunteers is mixed with an equal volume of D-PBS, layered on 10×10 mL FICOLL-PAQUE® (Pharmacia), and centrifuged at 1600 rpm for 30 min at room temperature. Peripheral blood mononuclear cells (PBMC) are collected from the FICOLL®/serum interface, overlayed on 10 mL fetal bovine serum (FBS) and centrifuged at 800 rpm for 10 min to remove platelets. After washing, cells are incubated with DYNAL® Antibody Mix (B cell kit) (Dynal Corp., Lake Success, N.Y.) for 20 min at 4-8° C. Following the removal of unbound antibody, PBL are mixed with anti-mouse IgG coated magnetic beads (Dynal) for 20 min at 4-8° C. with gentle shaking followed by elimination of labeled non-B cells on the magnetic bead separator. This procedure is repeated once more. The B cells are resuspended in RPMI-1640 with 10% FBS, and kept on ice until further use.
To study antibody production, B cells are aliquoted at 50−75×10^3 cells/well into 96-well plate with or without inhibitor, to which IL-2 (100 U/mL) and PANSORBIN® (Calbiochem) Staphylococcus aureus cells (1:90,000) were added. Part of the media is removed after 24-36 hr, and fresh media (with or without inhibitor) and IL-2 is added. Cultures are incubated at 37° C., in the presence of a CO2 incubator for additional 7 days. Samples from each condition (in triplicate) are removed, and analyzed for IgG and IgM, as measured by ELISA. Briefly, IMMULON® 4 96-well plates are coated (50 μL/well) with either 150 ng/mL donkey antihuman IgG (H+L) (Jackson ImmunoResearch, West Grove Pa.), or 2 μg/mL donkey antihuman IgG+IgM (H+L) (Jackson ImmunoResearch) in bicarbonate buffer, and left overnight at 4° C. After washing three times with phosphate buffered saline containing 0.1% TWEEN®-80 (PBST) (350 μL/well), and blocking with 3% goat serum in PEST (100 μL/well) for 1 hr at room temperature, samples (100 μL/well) of B cell spent media diluted in PBST are added. […] Color development is stopped by H2SOa solution, and plates were read on an ELISA plate reader.

basophils = assay: Basophil histamine release assay; assay type: cell-based; conditions: highest concentration, 10,000 nM
Procedure: Assessment of the effect of a compound of the invention on basophil function is tested using a conventional histamine release assay, generally in accordance with the method described in Miura et al., J. Immunol., 162:4198-206 (1999). Briefly, enriched basophils are preincubated with test compounds at several concentrations from 0.1 nM to 1,000 nM for 10 min at 37° C. Then, polyclonal goat antihuman IgE (0.1 μg/mL) or fMLP is added, and allowed to incubate for an additional 30 min. Histamine released into the supernatant is measured using an automated fluorometric technique.

| SMILES | EC50 (human neutrophils (PMN)) | Gamma-Delta Ratio (PI3Kγ) | Beta-Delta Ratio (PI3Kβ) | IC50 (PI3Kδ) | Alpha-Delta Ratio (PI3Kα) | EC50 (Human B Lymphocyte) | inhibition at 10 µM (basophils) |
| --- | --- | --- | --- | --- | --- | --- | --- |
| CCC(Nc1ncnc2[nH]cnc12)c1nc2cccc(C)c2c(=O)n1-c1cc(F)cc(F)c1 (stereo not drawn) [Compound 93, 3-(3,5-difluoro-phenyl)-5-methyl-2-[1-(9H-purin-6-ylamino)-propyl]-3H-quinazolin-4-one] | 584 nM | 62 | 94 | 26 nM | 721 | – | – |
| CCC(Nc1ncnc2[nH]cnc12)c1nc2ccccc2c(=O)n1-c1ccccc1 (stereo not drawn) [Compound 98, 3-phenyl-2-[1-(9H-purin-6-ylamino)-propyl]-3H-quinazolin-4-one] | 84 nM | 66 | 74 | 16 nM | 608 | 4.6 nM | – |
| CC[C@H](Nc1ncnc2[nH]cnc12)c1nc2cccc(Cl)c2c(=O)n1-c1cc(F)cc(F)c1 [Compound 117, (S)-5-chloro-3-(3,5-difluoro-phenyl)-2-[1-(9H-purin-6-ylamino)-propyl]-3H-quinazolin-4-one] | 382 nM | 67 | 78 | 12 nM | 662 | 1.6 nM | – |
| CCC(Nc1ncnc2[nH]cnc12)c1nc2cccc(Cl)c2c(=O)n1-c1c(F)cccc1F (stereo not drawn) [Compound 174, 5-chloro-3-(2,6-difluoro-phenyl)-2-[1-(9H-purin-6-ylamino)-propyl]-3H-quinazolin-4-one] | 298 nM | 38 | 72 | 45 nM | 250 | 30.7 nM | – |
| O=c1cc(N2CCOCC2)oc2c(-c3ccccc3)cccc12 [LY294002] | – | – | – | – | – | – | ~100% |
